Data on 91 compounds can be found in PubChem BioAssay AID1194 (EPA DSSTox, 2008).

The source made the active and inactive calls.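 How the source made its calls: active means chemicals rated mutagenic or weakly mutagenic in the Salmonella bacterial test by one literature review, or positive overall by another; inconclusive means no clear call, values can overlap the other calls; inactive means the rest.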

For the series, the system named is Salmonella typhimurium Ames mutagenicity, literature compiled. As to the kind of experiment: DSSTox (CPDBAS) Carcinogenic Potency Database Salmonella Mutagenicity. In a few lines:
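Calls derive from published evaluations rather than new testing; overall "positive" in EPA Gene-Tox, or "mutagenic"/"weakly mutagenic" per Zeiger, counts as active.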
For `CN(C)CCN(Cc1cccs1)c1ccccn1`, the outcome was “inactive; active”. The value for `CC(N)=S` was “inactive; active”; that for `Cc1ncc([N+](=O)[O-])n1C` was “active”.

For the compound `CN(N=O)C(=O)N[C@@H]1[C@@H](O)[C@H](O)[C@@H](CO)O[C@@H]1O`, the outcome was active. On to `CN=[N+](C)[O-]`, for which the outcome was active. The value for `OCCOCCO` was “inactive; active”; that for `CNc1ccc(N(CCO)CCO)cc1[N+](=O)[O-]` was “active”; that for `O=NN1CCNCC1` was “active”. The value for `IC(I)I` was “active”; that for `C=CCOCC1CO1` (stereo unspecified) was “active”; that for `NN` was “active; inactive”. In the case of `Oc1ccccc1`, the result was inactive. The value for `Cc1cc(O)c2c(c1)C(=O)c1cc(O)cc(O)c1C2=O` was “active”. The value for `Nc1ccc(Oc2ccc(N)cc2)cc1` was “active”; that for `ClCc1ccccc1` was “active”. The value for `CC(=O)NCc1nc(-c2ccc([N+](=O)[O-])o2)no1` was “active”; that for `COc1cc(-c2ccc(N)c(OC)c2)ccc1N` was “active; inactive”. With `COc1cc(-c2ccc(N=C=O)c(OC)c2)ccc1N=C=O`, the outcome was active. The value for `O=C1CN(/N=C/c2ccc([N+](=O)[O-])o2)C(=O)N1` was “active”; that for `CCOP(=S)(OCC)Oc1ccc([N+](=O)[O-])cc1` was “inactive”. The value for `O=C1CCO1` was “active”; that for `O=[N+]([O-])c1ccc(Cl)cc1` was “active”; that for `Nc1c(Cl)cc([N+](=O)[O-])cc1Cl` was “active”. The value for `CC1CN(N=O)CC(C)N1C(=O)c1ccccc1` (stereo unspecified) was “inactive”; that for `O=C(CCl)c1ccccc1` was “inactive”. On to `OCl`, for which the outcome was “inactive; active”. The value for `O=[N+]([O-])c1ccc(-c2cscn2)o1` was “active; inactive”. The value for `O=[O+][O-]` was “active; inactive”. The value for `COc1ccc(O)cc1` was “inactive; active”.

With `FC(F)OC(Cl)C(F)(F)F` (stereo unspecified), the outcome was inactive. On to `O=S(=O)(O)c1ccc2c(N=Nc3ccc(S(=O)(=O)O)c4ccccc34)c(O)c(S(=O)(=O)O)cc2c1`, for which the outcome was inactive.

In the case of `CC(C)N(C(=O)SC/C(Cl)=C/Cl)C(C)C`, the outcome was active. The value for `Cc1cc(N=Nc2ccccc2C)ccc1N` was “active”; that for `CCOC(=O)N(C)N=O` was “active”; that for `COCCl` was “inactive; active”. The value for `NC(=O)/C(=C\c1ccc([N+](=O)[O-])o1)c1ccco1` was “active”; that for `O=S(=O)(O)c1c(N=Nc2c(O)ccc3ccccc23)ccc2ccccc12` was “inactive; active”; that for `CN(C)CNc1nnc(/C=C/c2ccc([N+](=O)[O-])o2)o1` was “active”. The value for `COc1c(Cl)c(Cl)c(Cl)c(Cl)c1Cl` was “active; inactive”; that for `C=C(C)[C@H]1CC=C(C)CC1` was “inactive; active”. With `O=C1O[C@H]([C@@H](O)CO)C(O)=C1O`, the result was inactive. The value for `Oc1ccc(Cl)cc1Cc1ccccc1` was “inactive; active”; that for `CC(=O)c1ccc(S(=O)(=O)NC(=O)NC2CCCCC2)cc1` was “inactive”. The value for `NC(N)=S` was “inactive; active”; that for `ClC1(Cl)C2(Cl)C3(Cl)C4(Cl)C(Cl)(Cl)C5(Cl)C3(Cl)C1(Cl)C5(Cl)C24Cl` (stereo unspecified) was “inactive”. Regarding `C=CC=O`, the outcome is “active; inactive”. The value for `C=CC(O)c1ccc2c(c1)OCO2` (stereo unspecified) was “inactive”; that for `CCO` was “inactive; active”. The value for `C=Cc1cccc(C)c1` was “inactive; active”; that for `CC(=O)NNc1ccccc1` was “active”. The value for `O=[N+]([O-])c1ccc(NCCO)c(OCCO)c1` was “active”; that for `CCc1nc(N)nc(N)c1-c1ccc(Cl)cc1` was “inactive; active”; that for `NCC(=O)O` was “inactive”. With `CN(C)C=O`, the result was inactive. Take `CNC(=S)N(C)C`: the outcome was “inactive; active”. `C=CC(=C)C`: the result was inactive. Regarding `O=C1c2cccc(O)c2C(=O)c2c(O)cccc21`, the outcome was active. With `CC[C@H]1OC(=O)[C@H](C)[C@@H](O[C@H]2C[C@@](C)(OC)[C@@H](O)[C@H](C)O2)[C@H](C)[C@@H](O[C@@H]2O[C@H](C)C[C@H](N(C)C)[C@H]2O)[C@](C)(O)C[C@@H](C)C(=O)[C@H](C)[C@@H](O)[C@]1(C)O`, the outcome was inactive. The value for `CC1CN(/N=C/c2ccc([N+](=O)[O-])o2)C(=O)N1` (stereo unspecified) was “active; inactive”; that for `CCOc1ccccc1C(N)=O` was “inactive; active”. The value for `CC(C)CCCCCCOC(=O)c1ccccc1C(=O)OCCCCCCC(C)C` was “inactive; active”; that for `Clc1cccc(-c2ccc(Cl)c(Cl)c2Cl)c1Cl` was “inactive; active”; that for `C=CCO` was “inactive”.

On to `C[C@H]1CCCC(=O)CCC/C=C/c2cc(O)cc(O)c2C(=O)O1`, for which the outcome was “inactive; active”. The value for `CNNC` was “active”.

For the compound `C1CNCCN1`, the result was inactive.

Turning to `CC(C)CN(N=O)C(=N)N[N+](=O)[O-]`, the outcome was active. The value for `CCC[N+](=O)[O-]` was “inactive; active”; that for `[O-][Br+2]([O-])O` was “active”.

Regarding `O=C1C=CC(=O)C=C1`, the outcome was “inactive; active”. Consider `c1ccccc1`, for which the outcome is “inactive; active”. For `COC(C)(C)C`, the outcome was “inactive; active”. Consider `Cc1ccc(N)cc1Cl`, for which the outcome is “inactive; active”.

Consider `Nc1ccc(Cl)c(N)c1`, for which the outcome was “active; inactive”. The value for `Cc1ccc(N=Nc2c(O)ccc3ccccc23)c([N+](=O)[O-])c1` was “active; inactive”; that for `CCCCC(CC)COC(=O)c1ccccc1C(=O)OCC(CC)CCCC` (stereo unspecified) was “inactive; active”; that for `O=C(O)Cc1c[nH]c2ccccc12` was “inactive”. The value for `Oc1ccccc1O` was “inactive; active”.

Turning to `OCCO`, the result was inactive. Take `NC(N)=O`: the outcome is “inactive; active”. Consider `COP(=S)(OC)SCn1nnc2ccccc2c1=O`, for which the outcome is “active; inactive”. The value for `C1COCCO1` was “inactive; inconclusive”; that for `C=Cc1ccccc1` was “active; inactive”. In the case of `CCN(Cc1cccc(S(=O)(=O)O)c1)c1ccc(C(=C2C=CC(=[N+](CC)Cc3cccc(S(=O)(=O)[O-])c3)C=C2)c2ccc(S(=O)(=O)O)cc2)cc1`, the outcome was “inactive; active”. The value for `Nc1ccc(-c2ccc(N)cc2)cc1` was “active”; that for `Oc1ccc2ccccc2c1N=Nc1ccccc1` was “active; inactive”; that for `CC=O` was “inactive; active”. With `O=C/C(Cl)=C(/Cl)C(=O)O`, the outcome was active.

Regarding `O=NN1CCSCC1`, the outcome was “active; inactive”. On to `O=NN1CC=CCC1`, for which the result was active.

As for `C=C(C)C`, the result was inactive.
